SMILES strings stand for the structures.

Assay [1] deals with T1, Beta-adrenergic receptor kinase 1 (Bos taurus, UniProt P21146).
T1 sequence (P21146 whole entry): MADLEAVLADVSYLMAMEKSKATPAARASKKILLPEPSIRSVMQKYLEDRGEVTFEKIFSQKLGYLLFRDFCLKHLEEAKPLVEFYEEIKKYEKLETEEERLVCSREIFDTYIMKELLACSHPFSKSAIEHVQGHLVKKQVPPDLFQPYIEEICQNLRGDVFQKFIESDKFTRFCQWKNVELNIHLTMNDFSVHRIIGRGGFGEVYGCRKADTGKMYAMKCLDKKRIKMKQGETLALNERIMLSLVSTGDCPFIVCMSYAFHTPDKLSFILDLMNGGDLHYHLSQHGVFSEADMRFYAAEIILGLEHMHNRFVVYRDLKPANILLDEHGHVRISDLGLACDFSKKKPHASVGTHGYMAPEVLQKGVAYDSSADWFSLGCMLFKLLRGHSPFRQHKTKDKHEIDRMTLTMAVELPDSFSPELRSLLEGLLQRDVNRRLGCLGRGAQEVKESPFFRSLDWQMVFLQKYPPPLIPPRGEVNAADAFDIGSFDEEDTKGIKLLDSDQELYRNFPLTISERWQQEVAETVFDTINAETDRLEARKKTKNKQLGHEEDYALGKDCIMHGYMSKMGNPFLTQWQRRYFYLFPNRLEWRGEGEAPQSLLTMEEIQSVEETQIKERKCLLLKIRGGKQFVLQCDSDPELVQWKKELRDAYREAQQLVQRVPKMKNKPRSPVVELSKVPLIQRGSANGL
The assay is described as follows: Inhibition of bovine GRK2 expressed in baculovirus infected insect cell using tubulin as substrate incubated for 5 mins in presence of [gamma-32P]-ATP by radiometric assay.

A short description of assay [2]: Selectivity index, ratio of IC50 for inhibition of bovine GRK2 to IC50 for inhibition of human GRK5.
Assay [3] addresses G protein-coupled receptor kinase 5 (Homo sapiens, UniProt P34947). Briefly: Inhibition of human GRK5 (1 to 590) expressed in Escherichia coli using tubulin as substrate incubated for 5 mins in presence of [gamma-32P]-ATP by radiometric assay.

G protein-coupled receptor kinase 5, sequence (P34947 whole entry): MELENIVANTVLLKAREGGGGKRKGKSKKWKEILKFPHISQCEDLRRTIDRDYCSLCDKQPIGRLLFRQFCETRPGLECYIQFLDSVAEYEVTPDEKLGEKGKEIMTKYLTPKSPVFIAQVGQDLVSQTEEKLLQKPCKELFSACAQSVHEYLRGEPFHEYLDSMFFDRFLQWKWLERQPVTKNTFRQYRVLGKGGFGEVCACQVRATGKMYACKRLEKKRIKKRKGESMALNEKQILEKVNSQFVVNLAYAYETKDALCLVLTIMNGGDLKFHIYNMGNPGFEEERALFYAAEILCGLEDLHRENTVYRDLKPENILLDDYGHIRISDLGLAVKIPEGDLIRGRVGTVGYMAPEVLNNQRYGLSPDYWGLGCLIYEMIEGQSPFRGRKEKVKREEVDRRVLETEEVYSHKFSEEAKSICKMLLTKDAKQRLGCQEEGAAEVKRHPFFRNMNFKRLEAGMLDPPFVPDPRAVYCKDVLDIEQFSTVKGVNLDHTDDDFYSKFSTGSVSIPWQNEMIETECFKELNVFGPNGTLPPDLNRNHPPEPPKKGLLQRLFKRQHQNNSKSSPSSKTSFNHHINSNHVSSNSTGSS

Take `Cc1[nH]c(/C=C2\C(=O)Nc3ccc(C(=O)N[C@H](C)c4ccc(F)cc4)cc32)c(C)c1NC(=O)C(=O)c1ccco1`: the IC50 in assay [1] was above 1000 µM.
The same measure, in the same setting: the result for `Cc1[nH]c(/C=C2\C(=O)Nc3ccc(C(=O)NCc4ccc(F)cc4)cc32)c(C)c1NC(=O)[C@H](O)c1ccccc1` reads 30 µM; that for `Cc1[nH]c(/C=C2\C(=O)Nc3ccc(C(=O)NCc4ccc(F)cc4)cc32)c(C)c1NC(=O)[C@@H](O)c1ccco1`, 2.2 µM.
`Cc1[nH]c(/C=C2\C(=O)Nc3ccc(C(=O)N[C@H](C)c4ccc(F)cc4)cc32)c(C)c1NC(=O)C(=O)c1ccccc1`: the figures for the IC50 in assay [1] and in assay [3] were above 1000 µM and 1.1 µM, respectively. In assay [2], the Ratio IC50 was found to be 900.
As for `Cc1[nH]c(/C=C2\C(=O)Nc3ccc(C(=O)N[C@H](C)c4ccc(F)cc4)cc32)c(C)c1NC(=O)[C@@H](O)c1ccccc1`, in assay [1], the IC50 worked out at 90 µM.
On the same count and under the same terms, the result for `CC(=O)C(=O)Nc1c(C)[nH]c(/C=C2\C(=O)Nc3ccc(C(=O)N[C@H](C)c4ccc(F)cc4)cc32)c1C` reads 200 µM.
Same read-out and setting: the result for `Cc1[nH]c(/C=C2\C(=O)Nc3ccc(C(=O)N[C@H](C)c4ccc(F)cc4)cc32)c(C)c1NC(=O)[C@H](C)O` reads 100 µM; that for `Cc1[nH]c(/C=C2\C(=O)Nc3ccc(C(=O)N[C@H](C)c4ccc(F)cc4)cc32)c(C)c1NC(=O)[C@@H](C)O`, 600 µM.

One may read the IC50 as the concentration that gives 50% inhibition.

(Values after ChEMBL document CHEMBL5528004, “Development of a new class of potent and highly selective G protein-coupled receptor kinase 5 inhibitors and structural insight from crystal structures of inhibitor complexes” (Eur J Med Chem, 2024).)
